# Measurements taken from ChEMBL document CHEMBL1201862, “PubChem BioAssay data set” (2004).
#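 Exposure lasted 48 hours, with cells grown in 96-well plates and compounds tested at five concentrations. GI50 marks 50% less growth.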 Active and inactive are the calls of the source. Cut-off read from the data, not from the text of the source: active = GI50 up to about 1.1 µM and inactive = higher.
# Legend:
# Test in all cases: NCI anticancer screen, dose series, 48 h
# 786-0 = system: 786-0
# A498 = system: A498
# CCRF-CEM = system: CCRF-CEM
# COLO 205 = system: COLO 205
# DU-145 = system: DU-145
# EKVX = system: EKVX
# HCC 2998 = system: HCC 2998
# HL-60 = system: HL-60
# HOP-62 = system: HOP-62
# Hs-578T = system: Hs-578T
# IGROV-1 = system: IGROV-1
# KM12 = system: KM12
# MCF7 = system: MCF7
# MDA-MB-231 = system: MDA-MB-231
# MDA-MB-435 = system: MDA-MB-435
# MDA-N = system: MDA-N
# MOLT-4 = system: MOLT-4
# Malme-3M = system: Malme-3M
# NCI-H226 = system: NCI-H226
# NCI-H460 = system: NCI-H460
# NCI-H522 = system: NCI-H522
# NCI/ADR-RES = system: NCI/ADR-RES
# OVCAR-3 = system: OVCAR-3
# PC-3 = system: PC-3
# RPMI-8226 = system: RPMI-8226
# SF-539 = system: SF-539
# SK-MEL-28 = system: SK-MEL-28
# SK-MEL-2 = system: SK-MEL-2
# SK-MEL-5 = system: SK-MEL-5
# SNB-19 = system: SNB-19
# SW-620 = system: SW-620
# T47D = system: T47D
# U-251 = system: U-251
# UACC-257 = system: UACC-257
# UACC-62 = system: UACC-62
# UO-31 = system: UO-31
# A549 = system: A549
# ACHN = system: ACHN
# CAKI-1 = system: CAKI-1
# HCT-116 = system: HCT-116
# HCT-15 = system: HCT-15
# HOP-92 = system: HOP-92
# HT-29 = system: HT-29
# K562 = system: K562
# LOX IMVI = system: LOX IMVI
# M14 = system: M14
# NCI-H23 = system: NCI-H23
# OVCAR-4 = system: OVCAR-4
# OVCAR-5 = system: OVCAR-5
# OVCAR-8 = system: OVCAR-8
# RXF 393 = system: RXF 393
# SF-268 = system: SF-268
# SF-295 = system: SF-295
# SK-OV-3 = system: SK-OV-3
# SN12C = system: SN12C
# SNB-75 = system: SNB-75
# SR = system: SR
# TK-10 = system: TK-10
structure (smiles),measurement,setting,value
CN(C)C1COC2Cc3ccccc3C1O2 (configuration not stated),GI50,786-0,> 100 µM (inactive)
same,GI50,A498,> 100 µM (inactive)
same,GI50,CCRF-CEM,> 100 µM (inactive)
same,GI50,COLO 205,> 100 µM (inactive)
same,GI50,DU-145,> 100 µM (inactive)
same,GI50,EKVX,> 100 µM (inactive)
same,GI50,HCC 2998,> 100 µM (inactive)
same,GI50,HL-60,> 100 µM (inactive)
same,GI50,HOP-62,> 100 µM (inactive)
same,GI50,Hs-578T,> 100 µM (inactive)
same,GI50,IGROV-1,> 100 µM (inactive)
same,GI50,KM12,> 100 µM (inactive)
same,GI50,MCF7,> 100 µM (inactive)
same,GI50,MDA-MB-231,> 100 µM (inactive)
same,GI50,MDA-MB-435,> 100 µM (inactive)
same,GI50,MDA-N,> 100 µM (inactive)
same,GI50,MOLT-4,> 100 µM (inactive)
same,GI50,Malme-3M,> 100 µM (inactive)
same,GI50,NCI-H226,> 100 µM (inactive)
same,GI50,NCI-H460,> 100 µM (inactive)
same,GI50,NCI-H522,> 100 µM (inactive)
same,GI50,NCI/ADR-RES,> 100 µM (inactive)
same,GI50,OVCAR-3,> 100 µM (inactive)
same,GI50,PC-3,> 100 µM (inactive)
same,GI50,RPMI-8226,> 100 µM (inactive)
same,GI50,SF-539,> 100 µM (inactive)
same,GI50,SK-MEL-28,> 100 µM (inactive)
same,GI50,SK-MEL-2,> 100 µM (inactive)
same,GI50,SK-MEL-5,> 100 µM (inactive)
same,GI50,SNB-19,> 100 µM (inactive)
same,GI50,SW-620,> 100 µM (inactive)
same,GI50,T47D,> 100 µM (inactive)
same,GI50,U-251,> 100 µM (inactive)
same,GI50,UACC-257,> 100 µM (inactive)
same,GI50,UACC-62,> 100 µM (inactive)
same,GI50,UO-31,> 100 µM (inactive)
O=C1NC(Cc2ccc(O)cc2)C(=O)NC1Cc1ccc(O)cc1 (configuration not stated),GI50,786-0,> 100 µM (inactive)
same,GI50,A498,> 100 µM (inactive)
same,GI50,A549,> 100 µM (inactive)
same,GI50,ACHN,> 100 µM (inactive)
same,GI50,CAKI-1,> 100 µM (inactive)
same,GI50,CCRF-CEM,> 100 µM (inactive)
same,GI50,COLO 205,> 100 µM (inactive)
same,GI50,DU-145,24.8 µM (inactive)
same,GI50,EKVX,> 100 µM (inactive)
same,GI50,HCT-116,> 100 µM (inactive)
same,GI50,HCT-15,> 100 µM
same,GI50,HL-60,> 100 µM (inactive)
same,GI50,HOP-62,> 100 µM (inactive)
same,GI50,HOP-92,> 100 µM (inactive)
same,GI50,HT-29,> 100 µM (inactive)
same,GI50,Hs-578T,> 100 µM (inactive)
same,GI50,IGROV-1,> 100 µM (inactive)
same,GI50,K562,> 100 µM (inactive)
same,GI50,KM12,> 100 µM (inactive)
same,GI50,LOX IMVI,> 100 µM (inactive)
same,GI50,M14,> 100 µM (inactive)
same,GI50,MCF7,> 100 µM (inactive)
same,GI50,MDA-MB-231,> 100 µM (inactive)
same,GI50,MDA-MB-435,> 100 µM (inactive)
same,GI50,MDA-N,30.1 µM (inactive)
same,GI50,MOLT-4,> 100 µM (inactive)
same,GI50,Malme-3M,> 100 µM (inactive)
same,GI50,NCI-H226,> 100 µM (inactive)
same,GI50,NCI-H23,> 100 µM (inactive)
same,GI50,NCI-H460,> 100 µM (inactive)
same,GI50,NCI-H522,> 100 µM (inactive)
same,GI50,NCI/ADR-RES,> 100 µM (inactive)
same,GI50,OVCAR-3,> 100 µM (inactive)
same,GI50,OVCAR-4,> 100 µM (inactive)
same,GI50,OVCAR-5,> 100 µM (inactive)
same,GI50,OVCAR-8,> 100 µM (inactive)
same,GI50,PC-3,> 100 µM (inactive)
same,GI50,RPMI-8226,> 100 µM (inactive)
same,GI50,RXF 393,> 100 µM (inactive)
same,GI50,SF-268,> 100 µM (inactive)
same,GI50,SF-295,> 100 µM (inactive)
same,GI50,SF-539,> 100 µM (inactive)
same,GI50,SK-MEL-28,> 100 µM (inactive)
same,GI50,SK-MEL-2,> 100 µM (inactive)
same,GI50,SK-MEL-5,> 100 µM (inactive)
same,GI50,SK-OV-3,> 100 µM (inactive)
same,GI50,SN12C,27.1 µM (inactive)
same,GI50,SNB-19,> 100 µM (inactive)
same,GI50,SNB-75,28.2 µM (inactive)
same,GI50,SR,> 100 µM (inactive)
same,GI50,SW-620,> 100 µM (inactive)
same,GI50,TK-10,> 100 µM (inactive)
same,GI50,U-251,> 100 µM (inactive)
same,GI50,UACC-257,> 100 µM (inactive)
same,GI50,UACC-62,> 100 µM (inactive)
same,GI50,UO-31,> 100 µM (inactive)
